The values that follow come from ChEMBL document CHEMBL1201862, “PubChem BioAssay data set” (2004).

Activity calls are given as the source filed them. Some results are limits rather than exact numbers.

Experiment [1] has as its system Streptococcus sp. 'group A'. Description: growth inhibition of control SK(-) GAS strain, dose response, counter-screen for streptokinase expression inhibitor project, luminescence, kanamycin, BacTiterGlo, confirmation (AID 1900). Type of experiment: functional, organism-based.
Experiment [2] in a line: HEp-2 cell cytotoxicity, dose response, cytotoxicity control for RSV inhibitor project, HTS (AID 2410). Format: functional. As to conditions: human respiratory syncytial virus.
Experiment [3] in a line: CRF-BP/CRF-R2 complex antagonists, dose response, cell-based, uHTS hits, 384-well (AID 651639). Format: functional, Homo sapiens. As to conditions: read-out: IC50_Mean.
The target of experiment [4] is T1, Corticotropin-releasing factor receptor 2/Corticotropin-releasing factor-binding protein (Homo sapiens, UniProt P24387+Q13324).
T1 sequence (Q13324 whole entry): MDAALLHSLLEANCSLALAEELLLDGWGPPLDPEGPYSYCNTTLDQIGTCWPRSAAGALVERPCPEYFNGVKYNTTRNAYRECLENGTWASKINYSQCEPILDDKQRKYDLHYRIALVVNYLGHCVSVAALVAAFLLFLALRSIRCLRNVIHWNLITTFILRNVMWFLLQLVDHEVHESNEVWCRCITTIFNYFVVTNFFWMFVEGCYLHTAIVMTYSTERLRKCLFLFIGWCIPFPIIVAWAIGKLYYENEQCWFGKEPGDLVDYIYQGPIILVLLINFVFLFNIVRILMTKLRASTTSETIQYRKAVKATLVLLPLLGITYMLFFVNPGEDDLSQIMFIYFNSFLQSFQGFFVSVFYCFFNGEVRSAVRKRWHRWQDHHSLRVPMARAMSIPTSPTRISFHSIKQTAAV
T1 sequence (P24387 whole entry): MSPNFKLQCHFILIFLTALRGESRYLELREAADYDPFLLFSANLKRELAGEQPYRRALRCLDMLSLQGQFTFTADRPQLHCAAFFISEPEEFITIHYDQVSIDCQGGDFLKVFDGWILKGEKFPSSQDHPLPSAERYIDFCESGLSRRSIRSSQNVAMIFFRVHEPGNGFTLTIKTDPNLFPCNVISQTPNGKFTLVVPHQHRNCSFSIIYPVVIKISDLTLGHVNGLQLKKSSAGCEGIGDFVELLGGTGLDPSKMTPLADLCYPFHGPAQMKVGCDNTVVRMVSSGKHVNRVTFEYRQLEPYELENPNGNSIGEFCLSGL
Description: activators of CRF receptor 2 with binding protein – uHTS hits, confirmation (AID 602473). Format: functional. As to conditions: read-out: EC50_Mean.

Experiment [5] addresses T1, Corticotropin-releasing factor receptor 2/Corticotropin-releasing factor-binding protein. Description: Dose Response confirmation of uHTS hits for small molecule antagonists of the CRF-binding protein and CRF-R2 receptor complex. Type of experiment: functional. As to conditions: read-out: IC50_Mean.
The next experiment has as its target T2, Streptokinase A (Streptococcus pyogenes serotype M1, UniProt P10520).
T2 sequence (P10520 whole entry): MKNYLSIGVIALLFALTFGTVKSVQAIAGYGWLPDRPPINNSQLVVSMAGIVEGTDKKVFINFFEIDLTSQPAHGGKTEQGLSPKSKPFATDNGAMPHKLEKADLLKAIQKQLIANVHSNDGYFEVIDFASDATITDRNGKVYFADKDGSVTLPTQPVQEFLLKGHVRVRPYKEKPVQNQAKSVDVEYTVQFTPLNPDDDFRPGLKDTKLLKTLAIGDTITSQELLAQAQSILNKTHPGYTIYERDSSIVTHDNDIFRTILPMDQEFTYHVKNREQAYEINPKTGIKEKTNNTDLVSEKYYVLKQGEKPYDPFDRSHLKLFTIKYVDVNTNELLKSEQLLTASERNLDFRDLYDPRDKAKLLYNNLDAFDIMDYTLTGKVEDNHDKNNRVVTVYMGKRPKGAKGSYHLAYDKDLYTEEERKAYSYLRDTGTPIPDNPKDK
Description: S. pyogenes streptokinase expression inhibitors, potency, dose response, plasminogen activation absorbance, OD405 (AID 1914).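 Further: secreted streptokinase activity via plasminogen activation per viability signal from cell pellet.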 Type of experiment: functional, Streptococcus pyogenes M1 GAS.

For another experiment, the system named is Streptococcus. Description: Group A Streptococcus viability loss, dose response, counter-screen for streptokinase expression inhibitor project, luminescence, BacTiterGlo (AID 1915).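 Further: potency for reduction of bacterial viability or growth.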 Format: functional, organism-based.
In another experiment the target is Prothrombin (Homo sapiens, UniProt P00734). Description: Thrombin 1536 HTS Dose Response Confirmation. [Related pubchem assays: 1046 (Thrombin 1536 HTS; hits were confirmed in this assay)]. Format: functional.
In experiment [6] the target is T3, Fatty acid synthase (Homo sapiens, UniProt P49327). Description: FAS thioesterase domain inhibitors, dose response, biochemical, kinetic fluorescence intensity (AID 624326).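 Further: rate of fluorescence rise from hydrolysis of a fluorogenic O-methyl fluorescein ester substrate.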 Format: functional.
Experiment [7] deals with T3, Fatty acid synthase. Description: FAS thioesterase domain inhibitors, dose response, biochemical, endpoint fluorescence intensity, uHTS hits (AID 624327).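 Further: fluorescence from hydrolysis of an O-methyl fluorescein acyl ester substrate by the enzyme.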 Format: functional.
Another experiment deals with Estrogen receptor beta (Homo sapiens, UniProt Q92731).
Experiment [8] addresses T4, Heat shock factor protein 1 (Mus musculus, UniProt P38532).
T4 sequence (P38532 whole entry): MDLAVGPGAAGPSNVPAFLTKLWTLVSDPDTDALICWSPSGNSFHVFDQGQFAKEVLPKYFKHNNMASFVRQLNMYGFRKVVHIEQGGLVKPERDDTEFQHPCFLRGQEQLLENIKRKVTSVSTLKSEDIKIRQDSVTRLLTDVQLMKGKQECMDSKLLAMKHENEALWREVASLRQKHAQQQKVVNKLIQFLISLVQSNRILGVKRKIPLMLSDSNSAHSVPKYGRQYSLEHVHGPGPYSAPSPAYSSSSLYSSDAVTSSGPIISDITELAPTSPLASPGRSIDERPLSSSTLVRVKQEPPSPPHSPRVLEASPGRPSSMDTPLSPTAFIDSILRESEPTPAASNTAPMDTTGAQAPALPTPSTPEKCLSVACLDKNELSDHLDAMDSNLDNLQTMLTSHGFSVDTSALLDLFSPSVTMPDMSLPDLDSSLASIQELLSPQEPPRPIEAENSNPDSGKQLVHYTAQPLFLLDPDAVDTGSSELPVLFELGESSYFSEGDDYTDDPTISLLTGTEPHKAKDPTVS
Description: HSF1 potentiators in luciferase reporter cells, confirmation, cell-based, NIH3T3, luminescence, dose retest (AID 435004).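 Further: stress induced by proteasome inhibitor MG132 added 30 min after compound; luciferase reporter driven by HSF1 response element in NIH3T3 cells; actives raise luminescence as potentiators of the MG132 stress response.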 Format: functional.

Another experiment has as its target T5, Cytochrome P450 1A2 (Homo sapiens, UniProt P05177).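 Further: PubChem cytochrome P450 panel assay, CYP1A2 panel member.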
T5 sequence (P05177 whole entry): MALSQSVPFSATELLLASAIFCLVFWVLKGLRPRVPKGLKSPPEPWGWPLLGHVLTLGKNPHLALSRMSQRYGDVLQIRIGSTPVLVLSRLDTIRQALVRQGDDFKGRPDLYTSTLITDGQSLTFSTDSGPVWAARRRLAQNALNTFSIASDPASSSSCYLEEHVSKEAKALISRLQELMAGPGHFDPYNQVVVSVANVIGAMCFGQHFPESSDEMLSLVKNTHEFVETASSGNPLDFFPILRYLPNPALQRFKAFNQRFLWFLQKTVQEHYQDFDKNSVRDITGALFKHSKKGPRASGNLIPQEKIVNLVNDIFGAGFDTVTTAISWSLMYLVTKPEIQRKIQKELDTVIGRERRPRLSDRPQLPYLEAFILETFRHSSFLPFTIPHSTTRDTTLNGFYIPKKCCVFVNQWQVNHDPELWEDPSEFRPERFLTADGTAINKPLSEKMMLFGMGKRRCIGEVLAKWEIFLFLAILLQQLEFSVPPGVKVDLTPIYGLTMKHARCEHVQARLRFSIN

The next experiment deals with Cytochrome P450 2C9 (Homo sapiens, UniProt P11712).
Experiment [9] has as its target T6, DNA repair protein RAD52 homolog (Homo sapiens, UniProt P43351).
T6 sequence (P43351 whole entry): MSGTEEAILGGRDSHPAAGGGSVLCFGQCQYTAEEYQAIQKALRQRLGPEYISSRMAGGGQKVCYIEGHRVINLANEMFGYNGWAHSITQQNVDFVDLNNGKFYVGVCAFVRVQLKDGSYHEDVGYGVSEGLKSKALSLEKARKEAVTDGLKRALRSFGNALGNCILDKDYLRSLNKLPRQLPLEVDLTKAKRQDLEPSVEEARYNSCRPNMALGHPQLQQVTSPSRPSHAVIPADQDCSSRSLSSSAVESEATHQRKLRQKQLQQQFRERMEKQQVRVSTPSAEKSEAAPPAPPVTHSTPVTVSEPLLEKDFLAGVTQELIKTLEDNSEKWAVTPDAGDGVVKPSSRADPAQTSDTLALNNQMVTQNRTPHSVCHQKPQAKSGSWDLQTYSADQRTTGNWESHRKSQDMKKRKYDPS
Format: functional, biochemical.

For a further experiment, the system named is Vero. Description: cells. Type of experiment: functional. As to conditions: Chlorocebus sabaeus.

T3 sequence (P49327 whole entry, the tested form may be a part): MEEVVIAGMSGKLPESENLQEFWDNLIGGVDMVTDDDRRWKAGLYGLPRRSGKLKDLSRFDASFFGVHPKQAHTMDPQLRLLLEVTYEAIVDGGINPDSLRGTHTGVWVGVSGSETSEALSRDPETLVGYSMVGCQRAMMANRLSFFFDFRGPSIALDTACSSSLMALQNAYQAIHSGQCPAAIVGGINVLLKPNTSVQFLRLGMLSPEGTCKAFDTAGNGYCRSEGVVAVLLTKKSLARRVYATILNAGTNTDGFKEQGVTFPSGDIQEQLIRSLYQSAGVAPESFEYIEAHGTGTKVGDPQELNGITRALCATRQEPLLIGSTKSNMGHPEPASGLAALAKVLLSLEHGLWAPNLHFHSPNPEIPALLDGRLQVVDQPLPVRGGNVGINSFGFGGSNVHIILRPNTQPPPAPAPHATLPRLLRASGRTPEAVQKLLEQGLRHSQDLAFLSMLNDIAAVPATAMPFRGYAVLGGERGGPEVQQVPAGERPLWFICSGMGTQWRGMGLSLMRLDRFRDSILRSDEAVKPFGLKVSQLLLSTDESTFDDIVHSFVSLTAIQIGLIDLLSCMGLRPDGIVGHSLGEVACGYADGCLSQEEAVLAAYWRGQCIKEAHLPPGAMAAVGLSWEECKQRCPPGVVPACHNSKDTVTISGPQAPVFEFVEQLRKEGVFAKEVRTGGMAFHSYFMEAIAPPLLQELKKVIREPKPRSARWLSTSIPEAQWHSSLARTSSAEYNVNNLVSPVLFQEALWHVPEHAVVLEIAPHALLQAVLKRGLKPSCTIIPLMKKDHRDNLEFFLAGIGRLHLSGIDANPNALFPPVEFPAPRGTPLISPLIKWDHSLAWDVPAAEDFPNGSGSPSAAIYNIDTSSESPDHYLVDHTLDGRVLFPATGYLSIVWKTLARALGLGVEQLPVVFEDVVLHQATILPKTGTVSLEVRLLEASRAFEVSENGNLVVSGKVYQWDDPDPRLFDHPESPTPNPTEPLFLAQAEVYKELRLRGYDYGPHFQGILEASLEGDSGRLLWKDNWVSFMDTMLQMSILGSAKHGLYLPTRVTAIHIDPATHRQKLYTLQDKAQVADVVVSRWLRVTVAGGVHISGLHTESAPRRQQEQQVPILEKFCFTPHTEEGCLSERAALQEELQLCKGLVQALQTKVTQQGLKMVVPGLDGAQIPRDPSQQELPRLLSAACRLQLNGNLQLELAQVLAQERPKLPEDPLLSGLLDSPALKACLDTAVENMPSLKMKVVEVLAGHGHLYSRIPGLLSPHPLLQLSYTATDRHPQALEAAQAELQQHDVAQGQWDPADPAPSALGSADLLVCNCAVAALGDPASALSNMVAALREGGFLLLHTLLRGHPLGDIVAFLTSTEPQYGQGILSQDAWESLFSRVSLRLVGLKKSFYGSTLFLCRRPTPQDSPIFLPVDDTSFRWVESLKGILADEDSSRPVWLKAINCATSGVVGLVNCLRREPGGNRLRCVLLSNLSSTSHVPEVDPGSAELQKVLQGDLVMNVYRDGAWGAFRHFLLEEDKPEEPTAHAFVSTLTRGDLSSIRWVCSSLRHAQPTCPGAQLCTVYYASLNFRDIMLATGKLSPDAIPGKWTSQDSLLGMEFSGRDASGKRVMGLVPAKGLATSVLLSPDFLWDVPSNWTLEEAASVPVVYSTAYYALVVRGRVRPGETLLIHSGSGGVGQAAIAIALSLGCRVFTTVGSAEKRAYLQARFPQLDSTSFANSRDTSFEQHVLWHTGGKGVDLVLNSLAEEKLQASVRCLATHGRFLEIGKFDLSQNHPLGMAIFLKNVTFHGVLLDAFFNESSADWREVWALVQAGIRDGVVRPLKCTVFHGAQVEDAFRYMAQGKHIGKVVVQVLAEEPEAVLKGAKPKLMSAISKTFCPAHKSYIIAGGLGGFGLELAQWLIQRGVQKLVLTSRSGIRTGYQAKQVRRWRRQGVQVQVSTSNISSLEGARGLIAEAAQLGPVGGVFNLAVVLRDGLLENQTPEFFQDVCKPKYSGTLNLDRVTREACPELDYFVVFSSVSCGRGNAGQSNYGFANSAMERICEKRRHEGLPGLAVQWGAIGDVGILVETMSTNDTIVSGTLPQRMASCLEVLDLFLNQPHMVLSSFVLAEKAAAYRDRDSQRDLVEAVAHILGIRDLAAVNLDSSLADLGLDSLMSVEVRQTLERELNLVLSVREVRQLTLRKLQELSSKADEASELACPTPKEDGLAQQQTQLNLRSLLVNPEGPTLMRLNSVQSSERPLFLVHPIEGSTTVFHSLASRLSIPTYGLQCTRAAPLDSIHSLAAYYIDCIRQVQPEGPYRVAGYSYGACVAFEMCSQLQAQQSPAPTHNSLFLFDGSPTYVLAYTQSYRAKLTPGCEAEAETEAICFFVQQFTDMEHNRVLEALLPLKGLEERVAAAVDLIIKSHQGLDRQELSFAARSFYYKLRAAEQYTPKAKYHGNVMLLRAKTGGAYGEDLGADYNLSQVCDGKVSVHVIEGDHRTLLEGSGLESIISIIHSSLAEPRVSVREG
Chain of Estrogen receptor beta (Q92731 whole entry): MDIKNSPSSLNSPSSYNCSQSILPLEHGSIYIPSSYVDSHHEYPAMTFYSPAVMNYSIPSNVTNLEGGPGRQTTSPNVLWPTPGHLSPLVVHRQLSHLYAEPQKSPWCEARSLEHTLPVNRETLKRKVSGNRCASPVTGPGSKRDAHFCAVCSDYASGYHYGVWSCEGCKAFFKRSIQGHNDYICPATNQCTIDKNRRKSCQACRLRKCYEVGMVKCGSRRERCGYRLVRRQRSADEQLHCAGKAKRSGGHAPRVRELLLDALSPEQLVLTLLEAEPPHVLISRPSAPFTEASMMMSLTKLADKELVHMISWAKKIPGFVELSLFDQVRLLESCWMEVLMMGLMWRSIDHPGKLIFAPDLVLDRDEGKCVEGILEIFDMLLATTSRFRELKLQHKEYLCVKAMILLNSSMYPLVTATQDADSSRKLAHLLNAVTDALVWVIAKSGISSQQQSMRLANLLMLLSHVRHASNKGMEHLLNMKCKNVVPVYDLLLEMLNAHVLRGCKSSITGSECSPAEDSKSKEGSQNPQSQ
Chain of Cytochrome P450 2C9 (P11712 whole entry): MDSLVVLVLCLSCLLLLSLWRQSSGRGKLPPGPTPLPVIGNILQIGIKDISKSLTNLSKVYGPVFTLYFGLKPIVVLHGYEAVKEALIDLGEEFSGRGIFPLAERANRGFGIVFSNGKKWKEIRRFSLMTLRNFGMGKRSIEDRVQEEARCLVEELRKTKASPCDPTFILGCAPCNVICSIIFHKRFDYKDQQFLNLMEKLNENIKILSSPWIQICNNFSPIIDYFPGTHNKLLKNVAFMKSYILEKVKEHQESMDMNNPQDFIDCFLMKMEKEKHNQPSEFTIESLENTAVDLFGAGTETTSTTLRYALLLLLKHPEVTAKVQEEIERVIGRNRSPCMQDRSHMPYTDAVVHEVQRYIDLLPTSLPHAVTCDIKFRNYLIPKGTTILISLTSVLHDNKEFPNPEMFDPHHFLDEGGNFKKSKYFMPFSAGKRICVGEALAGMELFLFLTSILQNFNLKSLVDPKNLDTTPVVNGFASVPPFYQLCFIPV

As to `COC(=O)c1sc(-c2ccc(C(C)(C)C)cc2)cc1NC(=O)CSCC(=O)O`, the EC50 in [1] was 8.94 µM (active); in experiment [4], 36.8 µM (active); at Streptokinase A, 6.69 µM (active); in the experiment with Streptococcus, 12.1 µM (active). Further, the CC50 in experiment [2] is 15.7 µM (active). Moreover, the IC50 in experiment [3] was 14.1 µM (active); in experiment [5], 4.1 µM (active).
Turning to `COc1ccccc1NC(=O)c1sc2ncn(Cc3cccc(C)c3)c(=O)c2c1C`, the IC50 against Prothrombin was > 50 µM (not active).
As for `CC1CCN(S(=O)(=O)c2ccc3c(c2)c(=O)c(C(=O)NCc2ccco2)cn3C)CC1`, the IC50 on Fatty acid synthase [6] is 2.4 µM (active); at Fatty acid synthase [7], 3.81 µM (active).
For `O=C(Nc1nccs1)c1ccc2nccnc2c1`, the IC50 on Estrogen receptor beta is 14.9 µM (active).
Regarding `Clc1cccc(-c2nnc(SC/C=C/c3ccccc3)n2Cc2ccco2)c1`, the IC50 in [3] is > 20 µM (inactive); in experiment [5], 4.74 µM (active). Also, the EC50 in experiment [4] is > 53 µM (inactive).
Turning to `O=[N+]([O-])c1ccc(Sc2ccccc2)nc1`, the IC50 in experiment [3] was 5.42 µM (active); in experiment [5], < 0.368 µM (active). Also, the figures for the EC50 in experiment [4] and in experiment [8] were > 53 µM (inactive) and > 260 µM (inactive), respectively.
Take `Cc1nc(Sc2ccccc2)c(C#N)c(C)c1[N+](=O)[O-]`: the IC50 at Fatty acid synthase [6] was 8.81 µM (active); at Fatty acid synthase [7] it was 13.9 µM (active).
For `CC(C)c1ccc(S(=O)(=O)c2nnn3c2nc(NCC2CCCO2)c2ccccc23)cc1` (centres undefined) the same measures were 1.34 µM (active) and 1.72 µM (active).
For `COc1cccc(NC(=O)CN2C(=O)CSc3ccc(S(=O)(=O)N4CCC(C)CC4)cc32)c1` the same measures were 2.44 µM (active) and 6.24 µM (active).
On to `Cc1ccc(S(=O)(=O)c2nnn3c2nc(N2CCOCC2)c2ccccc23)c(C)c1`, for which the values for the IC50 in [3] and in experiment [5] were > 20 µM (inactive) and < 0.368 µM (active), respectively. For the same compound, in [4], the EC50 is > 53 µM (inactive).
`COC(=O)c1nnc(NC(=O)c2ccccc2)[nH]1`: the results for the AC50 at Cytochrome P450 1A2 and on Cytochrome P450 2C9 were 17.8 µM (inconclusive) and 3.98 µM (inconclusive), respectively. In addition, the IC50 at Prothrombin is 0.0545 µM (active).
Consider `CCn1cc(C(=O)NCc2ccco2)c(=O)c2cc(S(=O)(=O)N3CCCC3)ccc21`, for which the IC50 at Prothrombin is 1.31 µM (active).
For `CCCCc1nc2sc3c(SCCN(C)C)ncnc3c2c2c1CCC2`, in experiment [9], the concentration at half-maximal activity (AC50) is 19.7 µM (active). For the same compound, the cytotoxic concentration (CC50) in the experiment with Vero is 20.6 µM (active).
Turning to `O=C(Cn1nc(-c2ccco2)ccc1=O)Nc1cc(C(F)(F)F)ccc1Cl`, the IC50 at Fatty acid synthase [6] is 13.1 µM (active); at Fatty acid synthase [7] it was 11.8 µM (active).
Turning to `Nc1nonc1NC(=O)CSc1ncccc1C(=O)O`, on Estrogen receptor beta, the IC50 is given as > 50 µM (not active).
As for `CC(C)N1CCc2c(sc(NC(=O)c3cc4cc([N+](=O)[O-])ccc4s3)c2C(N)=O)C1`, the AC50 in [9] was 10.3 µM (active). Further, the EC50 in experiment [4] is > 53 µM (inactive).
Take `CCCC(=O)n1nc(-c2ccccc2)nc1SC`: on Prothrombin, the IC50 was 0.935 µM (active).
